One compound from PMC9598880, “Activity of a Novel Anti-Inflammatory Agent F-3,6′-dithiopomalidomide as a Treatment for Traumatic Brain Injury” (Biomedicines, 2022) can be followed below.

The structures appear in SMILES notation.

The target of the assay is T1, cereblon (Homo sapiens, UniProt Q96SW2).
T1 construct: gene CRBN; CRBN/DDB1−CUL4A−Rbx1 complex (BPS Bioscience catalog no. 79770); with DDB1−CUL4A−Rbx1; BRD3
The assay is described as follows: AlphaScreen bead-based cereblon/BRD3 binding assay (called FRET in the text). On the technique in general: Bead proximity is the source of the signal in Alpha formats.

T1 sequence (Q96SW2 whole entry): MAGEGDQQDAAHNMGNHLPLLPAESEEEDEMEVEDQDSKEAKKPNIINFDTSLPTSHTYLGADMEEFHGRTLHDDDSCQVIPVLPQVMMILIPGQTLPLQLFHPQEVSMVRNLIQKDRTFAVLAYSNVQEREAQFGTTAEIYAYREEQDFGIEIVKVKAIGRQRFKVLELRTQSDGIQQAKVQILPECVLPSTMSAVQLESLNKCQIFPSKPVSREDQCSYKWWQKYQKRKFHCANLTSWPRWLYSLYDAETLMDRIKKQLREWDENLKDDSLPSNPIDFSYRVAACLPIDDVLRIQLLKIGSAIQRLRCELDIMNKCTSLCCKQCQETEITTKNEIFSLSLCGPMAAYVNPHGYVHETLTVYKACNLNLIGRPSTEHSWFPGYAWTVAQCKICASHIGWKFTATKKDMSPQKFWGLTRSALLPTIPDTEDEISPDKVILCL
T1 sequence (Q16531 2-1140 partner): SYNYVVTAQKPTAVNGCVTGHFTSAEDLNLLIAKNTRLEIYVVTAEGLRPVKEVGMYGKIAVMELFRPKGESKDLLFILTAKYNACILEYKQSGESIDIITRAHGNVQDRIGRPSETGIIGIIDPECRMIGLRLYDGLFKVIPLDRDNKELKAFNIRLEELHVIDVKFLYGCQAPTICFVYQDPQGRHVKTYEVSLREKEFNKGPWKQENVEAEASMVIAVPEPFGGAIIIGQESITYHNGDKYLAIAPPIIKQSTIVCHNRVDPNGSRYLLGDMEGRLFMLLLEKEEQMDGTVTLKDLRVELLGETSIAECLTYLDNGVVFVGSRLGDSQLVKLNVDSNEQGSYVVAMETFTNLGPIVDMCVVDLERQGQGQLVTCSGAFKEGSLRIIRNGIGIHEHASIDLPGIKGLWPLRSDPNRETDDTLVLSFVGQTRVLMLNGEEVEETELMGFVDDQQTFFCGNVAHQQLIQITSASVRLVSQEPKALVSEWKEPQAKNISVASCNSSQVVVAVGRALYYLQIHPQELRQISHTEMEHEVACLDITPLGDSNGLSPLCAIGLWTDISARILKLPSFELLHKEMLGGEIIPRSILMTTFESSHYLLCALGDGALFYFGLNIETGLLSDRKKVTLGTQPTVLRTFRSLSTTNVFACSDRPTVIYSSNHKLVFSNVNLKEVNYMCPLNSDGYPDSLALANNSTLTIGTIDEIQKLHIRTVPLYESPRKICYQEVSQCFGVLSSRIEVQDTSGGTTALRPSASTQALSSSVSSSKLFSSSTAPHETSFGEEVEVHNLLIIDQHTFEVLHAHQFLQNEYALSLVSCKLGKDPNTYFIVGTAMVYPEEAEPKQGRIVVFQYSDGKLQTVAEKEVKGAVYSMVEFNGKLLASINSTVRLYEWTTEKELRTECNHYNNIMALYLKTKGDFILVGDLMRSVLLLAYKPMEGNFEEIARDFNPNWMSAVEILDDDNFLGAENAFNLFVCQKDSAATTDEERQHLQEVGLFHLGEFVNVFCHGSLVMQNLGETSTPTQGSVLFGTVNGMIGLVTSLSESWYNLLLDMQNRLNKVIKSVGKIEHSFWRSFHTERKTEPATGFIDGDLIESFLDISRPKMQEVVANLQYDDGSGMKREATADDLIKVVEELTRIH
T1 sequence (Q13619 whole entry partner): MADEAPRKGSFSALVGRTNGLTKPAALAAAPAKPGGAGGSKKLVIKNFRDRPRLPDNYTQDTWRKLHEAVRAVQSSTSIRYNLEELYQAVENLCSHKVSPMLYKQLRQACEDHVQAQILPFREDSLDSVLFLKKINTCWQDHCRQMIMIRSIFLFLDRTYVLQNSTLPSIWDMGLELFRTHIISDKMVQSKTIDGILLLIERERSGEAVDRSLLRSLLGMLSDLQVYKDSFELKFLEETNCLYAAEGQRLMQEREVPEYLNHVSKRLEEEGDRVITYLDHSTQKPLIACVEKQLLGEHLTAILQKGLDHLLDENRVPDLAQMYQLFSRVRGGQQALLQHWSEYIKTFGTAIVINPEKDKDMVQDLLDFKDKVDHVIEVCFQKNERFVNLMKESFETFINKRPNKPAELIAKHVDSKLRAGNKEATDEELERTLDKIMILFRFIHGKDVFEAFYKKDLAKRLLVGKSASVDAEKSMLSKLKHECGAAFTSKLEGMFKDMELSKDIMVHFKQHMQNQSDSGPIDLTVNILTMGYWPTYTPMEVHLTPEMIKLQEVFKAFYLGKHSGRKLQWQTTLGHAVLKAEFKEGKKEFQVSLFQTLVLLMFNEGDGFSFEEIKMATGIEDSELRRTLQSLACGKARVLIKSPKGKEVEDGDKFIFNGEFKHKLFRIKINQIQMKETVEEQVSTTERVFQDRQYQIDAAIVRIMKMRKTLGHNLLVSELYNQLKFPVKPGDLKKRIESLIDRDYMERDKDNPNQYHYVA
T1 sequence (P62877 whole entry partner): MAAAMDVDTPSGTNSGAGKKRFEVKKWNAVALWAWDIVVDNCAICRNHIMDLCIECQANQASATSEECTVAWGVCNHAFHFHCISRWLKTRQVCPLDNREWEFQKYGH

As a reminder, the IC50 is the concentration that gives 50% inhibition. Read a low IC50 as inhibition by little substance. The compound `Nc1ccc(F)c2c1C(=S)N(C1CCC(=S)NC1=O)C2=O` (stereo not shown) [F-3,6′-DP] yielded a 50% inhibitory concentration (IC50) of 2660 nM.
